Results published in US11801210B2, “Retinol replacement in skin treatment” (SYMRISE AG, priority 2018, dated 2023).

How the values were obtained:
cells (proliferation) = test: CyQUANT Direct Cell Proliferation Assay; assay type: cell-based; details: 0.00005 mM; 72 hours; media with 6% FBS
Procedure: To evaluate the pro-proliferative activity of MDI 101, the CyQUANT® Direct Cell Proliferation Assay was performed. The CyQUANT® Direct assay is based on a cell-permeant DNA-binding dye in combination with a background suppression reagent. As DNA content is highly regulated, cell number estimates are very accurate. The masking dye blocks staining of dead cells and cells with compromised cell membranes, causing only staining of healthy cells. Therefore, the CyQUANT® Direct assay measures proliferation as well as cytotoxicity. The fluorescence can be measured spectrophotometrically from bottom of well with standard green filter sets or wavelengths (EX/EM 508/527 nm).
The proliferation capacity is performed in black 96-well microplates from Corning (Germany) and with the microplate reader “Spark” from Tecan (Crailsheim, Germany).
Cells are seeded in a black 96 well microplate with transparent bottom and incubated at 37° C. and 5% CO2. After 24 hours the supernatant is decanted and the samples are added in fresh media with 6% FBS. As a positive control KGF is always co-tested. […] Then the CyQUANT® Direct assay is performed and the fluorescence is measured from bottom of well at EX/EM 508/527 nm.
The proliferation probability is expressed in percent, which can be determined by rule of proportion in combination with the control.

[1] = test system: intracellular radicals (reactive oxygen species, ROS) in cells; test: Dichlorofluorescein (DCF) assay, oxidative stress; assay type: cell-based; details: for ROS mean value / ROS reduction: 24 h incubation, relative to control
Procedure: For the quantification of intracellular radicals, the dichlorofluorescein (DCF) assay was performed. […] By intracellular esterases and oxidation, the nonfluorescent H2DCFDA is converted to the highly fluorescent 2′,7′-dichlorofluorescein (DCF). The nonfluorescent fluorescin (2′,7′-dichlorofluorescein diacetate (DCFH-DA) pass the cell membranes. In the cytoplasm, it is splitted by intracellular esterases and cannot leave out of the cell in this form. The oxidation by intracellularly existing ROS (reactive oxygen species) modifies the molecule so that will become DCF and emit fluorescence.
Determination of the anti-oxidative capacity is performed in 96-well microplates from Nunc (Wiesbaden, Germany) and with the microplate reader “Spark” from Tecan (Crailsheim, Germany).
Cells are seeded in a black 96 well microplate with transparent bottom and incubated at 37° C. After 24 hours the supernatant is decanted and fresh media with 0.1% FBS is succeded. Further 24 hours later the supernatant is decanted again and the test samples are added and incubated for 24 hours. Varying concentrations of MDI 101 in the cell culture medium were tested. As a positive control Trolox is always co-tested. Then the DCF Assay is performed and the fluorescence is measured from bottom of well at EX/EM 485/528 nm. The antioxidative capacity is expressed in percent, which can be determined by rule of proportion in combination with the control.

[2] = Solubility and recrystallization in o/w emulsions (microscopy, polarized light); assay type: physicochemical
Procedure: Two pre-blends, A1 and A2, both containing 2.5 w/w % of Hydroxypinacolone Retinoate (MDI 101) were produced according to the above recipe. Three o/w emulsions (A, B and C) according to the following recipe were prepared: Heat Phases A and C separately up to 80° C. Disperse Phase B in A. Add Phase C to AB and emulsify by using an Ultra Turrax Stirrer (3 min, 6000 rpm). Add Phase D and neutralize. Allow to cool by using a vane stirrer. The emulsions were equal, except for the addition of MDI 101. […] As the pre-blends contain 2.5 wt.-% MDI 101, the final concentration of MDI 101 in the emulsions A, B and C was 0.05 wt.-% in all emulsions.

[3] = test system: three-dimensional (3D) epidermis model (keratinocytes); test: 3D epidermis model, thickness of the epidermis (H&E and Ki67 stained sections); assay type: cell-based; details: 0.01 μM; for Thickness (whole) / Thickness (without stratum corneum): epidermis in stained sections
Procedure: With such 3D assays significant information is obtained about the complex stratification and terminal differentiation process of keratinocytes in a multilayered epidermal tissue with barrier functionality.
Furthermore, paraffin sectioning and a H&E and Ki67 staining was performed. The thickness of the epidermis in the stained sections was measured and compared between MDI 101, all-trans Retinol, all in a concentration of 0.01 μM and the DMSO control (FIG. 1).

[4] = test system: 3T3 swiss albino mouse fibroblasts; test: Cytotoxicity assay (TOX8 kit); assay type: cell-based; details: Mus musculus, Fibroblast; 3T3 fibroblasts, 48 h treatment; concentration in medium lethal for 50% of living cells
Procedure: (§1) The TOX8 (Sigma Aldrich) Kit was used to determine cytotoxicity retinoic acid, 3,3-dimethyl-2-oxobutyl ester (MDI 101) on 3T3 swiss albino mouse fibroblasts. The 3T3 were cultivated in DMEM medium (Capricorn) including 10% FBS, 1% Penicillin/Streptomycin and 100 nM sodium selenite at 37° C. and 5% CO2. For the cytotoxicity experiment, 3T3 were seeded into 96-well microtiter plate. After 24 hours incubation and a confluence of 30 to 40% the cells were treated with MDI 101 in four different concentrations for 48 h. Test substance was pre-diluted in DMSO, further dilutions were performed in equal medium with 5% FBS. After 48 h a microscopic estimation was carried out and the cells were incubated with TOX8-Kit for two hours at 37° C. and 5% CO2. The absorbance of a converted dye was measured by spectrophotometry at a wavelength of 600 nm. Bioreduction of the dye reduces the amount of its oxidized form (blue) and concomitantly increases the fluorescent intermediate (red), wherein the mechanism and applicability of the test is independent of the cell type. Cell viability was analyzed relative to the solvent-control. The inhibitory concentrations for 50% viability (IC50) and 80% (IC20) were calculated.
(§2) The specific concentration of MDI 101 in the cell culture medium, which is lethal for 20% (IC20) and for 50% (IC50) of living cells was determined: […]

[5] = Cytotoxicity assay (TOX8 kit); assay type: cell-based, mouse; details: mouse, 3T3 swiss albino mouse fibroblasts; 3T3 fibroblasts, 48 h treatment; concentration in medium lethal for 20% of living cells (80% viability)
Procedure: as §1, §2

[6] = ABTS+ assay, anti-oxidative capacity; assay type: biochemical; details: 10 min at 30° C., 734 nm
Procedure: For the determination of the anti-oxidative capacity, the ABTS+-Assay was performed. The assay principle bases on the reduction and the involved decolourization of the green coloured cationic radical 2,2′-Azinobis(3-ethylbenzothiazoline 6-sulfonic acid) (ABTS+) by antioxidants. The decolourization can be measured spectrophotometrically at 734 nm.
The determination of the anti-oxidative capacity is performed in 96-well microplates from Nunc (Wiesbaden, Germany) and with the microplate reader “Spark” from Tecan (Crailsheim, Germany).
Samples were incubated for 10 min at 30° C. with the 2,2′-Azinobis-(3-ethylbenzothiazoline-6-sulfonate (ABTS+) radical cation (Sigma, St. Louis, USA) prepared by reaction of ABTS+ with potassium persulfate. As a positive control Trolox is always co-tested. The degree of decolourization was determined spectrophotometrically at 734 nm by […]. Results are mean values from 2 independent experiments with quadruple determinations each.
The antioxidative capacity is expressed in IC50 values (concentration that scavenges 50% of the cationic radical relative to the untreated ABTS+ solution), which can be determined by a trend calculation.

Row | Structure (SMILES) | Mean proliferation compared to control (100%) (cells (proliferation)) [%] | ROS mean value ([1]; 0.002 μM) [%] | ROS reduction ([1]; 0.002 μM) [%] | ROS mean value ([1]; 0.02 μM) [%] | ROS reduction ([1]; 0.02 μM) [%] | Anti-oxidative effect (in words) ([1]; concentrations which should have no cytotoxic effect) | Solubility after pre-solving in diisopropyl adipate ([2]; pre-solved in diisopropyl adipate, recrystallization could be avoided) | Solubility in cosmetic or pharmaceutical compositions (e.g. emulsions) ([2]; sole powder) | Effect on the thickness of the epidermis (in words) ([3]; compared with all-trans Retinol in the same concentration) | Thickness (whole) [3] [μm] | Thickness (without stratum corneum) [3] [μm] | IC50 [4] [µM] | IC20 at 48 h [5] [µM] | Mean inhibition ([6]; 2 μM) [%] | Mean inhibition ([6]; 25 μM) [%] | Mean inhibition ([6]; 50 μM) [%] | Mean inhibition ([6]; 250 μM) [%] | Mean inhibition ([6]; 500 μM) [%]
1 | CC1=C(/C=C/C(C)=C/C=C/C(C)=C/C(=O)OCC(=O)C(C)(C)C)C(C)(C)CCC1 [MDI 101, retinoic acid, 3,3-dimethyl-2-oxobutyl ester] | 125 | 75 | 25 | 23 | 77.5 | anti-oxidative effect | strongly improved the solubility | poor solubility | better than the effect of all-trans Retinol | 157 | 112.5 | 263 | 171 | 8.8 | 17.7 | 27.3 | 83.3 | 96.4
2 | CC1=C(/C=C/C(C)=C/C=C/C(C)=C/CO)C(C)(C)CCC1 [All-trans Retinol, reference compound] | – | – | – | – | – | – | – | – | – | 150 | 85 | – | – | – | – | – | – | –
